The text below walks through data of patent US11154563B2, “Immunoproteasome inhibitors” (Principia Biopharma Inc., priority 2017, dated 2021).

Bounds are passed on as bounds.

In assay [1] the target is immunoproteasome LMP7/B5i subunit (Homo sapiens, UniProt P20618+P28062). Put plainly: Caliper-based proteasome enzymatic activity assay, LMP7. It counts as biochemical. The following applies: human recombinant immunoproteasome 0.3 nM, FAM-peptide substrate 1 μM, 3 h at rt. The method, then: (§1) A Caliper-based proteasome assay (Caliper Life Sciences, Hopkinton, Mass.) was used to measure inhibition of the immunoproteasome LMP7/B5i subunit, the immunoproteasome LPM2/β1i subunit, and the constitutive proteasome β5c unit for a compound of Formula (I). For LMP7 and β5c, serial dilutions of test compounds were incubated with either human recombinant immunoprotcasome or constitutive proteasome (0.3 nM enzyme) and a carboxyfluorescein (FAM)-labeled peptide substrate FAM-TYETFKSIMKKSPF-NH2 (1 μM) at it for 3 h. The reaction was then terminated with a buffer containing the known proteasome inhibitor carfilzomib at a concentration of 5 uM. For LMP2, serial dilutions of test compounds were incubated with human recombinant immunoproteasome proteasome (0.3 nM enzyme) and a carboxyfluorescein (FAM)-labeled peptide substrate FAM-[…]-NH2 (1 μM) at rt for 2 h. The reaction was then terminated with a buffer containing the known proteasome inhibitor ixazomib at a concentration of 6.7 uM. The reaction buffer was 20 mM Hepes pH 7.4, 0.01% bovine serum albumin, 0.015% SDS, 0.5 mM EDTA, 1%0/DMSO. The peptide cleavage reaction product was quantified on a Caliper LabChip 3000. Percent inhibition was calculated for each compound dilution and the concentration that produced 50% inhibition was calculated. This value is presented as the IC50.

Assay [2] addresses constitutive proteasome β5c unit (Homo sapiens, UniProt P20618+P28074). Put plainly: Caliper-based proteasome enzymatic activity assay, β5c. Particulars: human recombinant constitutive proteasome 0.3 nM, FAM-peptide substrate 1 μM, 3 h at rt; read-out: β5c subunit IC50. It counts as biochemical. The method, then:
as §1

As for `CC(C)(C=C(C#N)C(=O)N1CCOC[C@@H]1COC(=O)N[C@@H](Cc1ccccc1)B(O)O)N1CCC(F)(F)C1` [Example 94, ((R)-1-(((((R)-4-(2-cyano-4-(3,3-difluoropyrrolidin-1-yl)-4-methylpent-2-enoyl)morpholin-3-yl)methoxy)carbonyl)amino)-2-phenylethyl)boronic acid], the IC50 in assay [1] was 0.002 µM; in assay [2], 1.76 µM.
`C=CC(=O)N1C[C@@H]2C[C@@H]2[C@@H]1COC(=O)N[C@@H](Cc1ccc(C)cc1)B(O)O` [Example 95, ((R)-1-(((((1S,2R,5R)-3-acryloyl-3-azabicyclo[3.1.0]hexan-2-yl)methoxy)carbonyl)amino)-2-(p-tolyl)ethyl)boronic acid]: the IC50 in assay [1] was 0.037 µM; in assay [2], 3.39 µM.
In the case of `COc1cccc(C[C@H](NC(=O)OC[C@H]2CCCCN2C(=O)C(C#N)=CC(C)(C)N2CCC(F)(F)C2)B(O)O)c1` [Example 96], the IC50 is 0.0027 µM in assay [1] and greater than 5 µM in assay [2].
`CN(CC(F)(F)F)C(C)(C)C=C(C#N)C(=O)N1CCCC[C@@H]1COC(=O)N[C@@H](Cc1ccccc1)B(O)O` [Example 97, ((R)-1-(((((R)-1-(2-cyano-4-methyl-4-(methyl(2,2,2-trifluoroethyl)amino)pent-2-enoyl)piperidin-2-yl)methoxy)carbonyl)amino)-2-phenylethyl)boronic acid]: the IC50 came out at 0.005 µM in assay [1] and 3.97 µM in assay [2].
With `CC(C)(C=C(C#N)C(=O)N1CCOC[C@@H]1COC(=O)N[C@@H](CCc1ccccc1)B(O)O)N1CCC(F)(F)C1` [Example 98, ((R)-1-(((((R)-4-(2-cyano-4-(3,3-difluoropyrrolidin-1-yl)-4-methylpent-2-enoyl)morpholin-3-yl)methoxy)carbonyl)amino)-3-phenylpropyl)boronic acid], the IC50 turned out to be 0.0035 µM in assay [1] and 3.27 µM in assay [2].
With `C=CC(=O)N1C[C@@H]2C[C@@H]2[C@@H]1COC(=O)N[C@@H](Cc1ccccc1)B(O)O` [Example 99, ((R)-1-(((((1S,2R,5R)-3-acryloyl-3-azabicyclo[3.1.0]hexan-2-yl)methoxy)carbonyl)amino)-2-phenylethyl)boronic acid], the IC50 in assay [1] is 0.068 µM; in assay [2] it was 1.99 µM.
`C=CC(=O)N1C[C@@H](F)C[C@@H]1COC(=O)N[C@@H](Cc1ccccc1)B(O)O` [Example 100, ((R)-1-(((((2R,4S)-1-acryloyl-4-fluoropyrrolidin-2-yl)methoxy)carbonyl)amino)-2-phenylethyl)boronic acid]: the results for the IC50 in assay [1] and in assay [2] were 0.021 µM and 0.53 µM, respectively.
Turning to `CC(C)(C=C(C#N)C(=O)N1CCCC[C@@H]1COC(=O)N[C@@H](CCc1ccccc1)B(O)O)N1CCC(F)(F)C1` [Example 101, ((R)-1-(((((R)-1-(2-cyano-4-(3,3-difluoropyrrolidin-1-yl)-4-methylpent-2-enoyl)piperidin-2-yl)methoxy)carbonyl)amino)-3-phenylpropyl)boronic acid], the concentration for half-maximal inhibition (IC50) was 0.0017 µM in assay [1] and greater than 5 µM in assay [2].
For the compound `CC(C)(/C=C(/C#N)C(=O)N1CCCC[C@@H]1COC(=O)N[C@@H](Cc1ccccc1)B(O)O)N1CCC(F)(F)C1` [Example 103, ((R)-1-(((((R)-1-((Z)-2-cyano-4-(3,3-difluoropyrrolidin-1-yl)-4-methylpent-2-enoyl)piperidin-2-yl)methoxy)carbonyl)amino)-2-phenylethyl)boronic acid], the IC50 in assay [1] is 0.0053 µM; in assay [2], 2.31 µM.
Take `CC(C)(C=C(C#N)C(=O)N1C[C@@H]2C[C@@H]2[C@@H]1COC(=O)N[C@@H](CCc1ccccc1)B(O)O)N1CCC(F)(F)C1` [Example 104, ((R)-1-(((((1S,2R,5R)-3-(2-cyano-4-(3,3-difluoropyrrolidin-1-yl)-4-methylpent-2-enoyl)-3-azabicyclo[3.1.0]hexan-2-yl)methoxy)carbonyl)amino)-3-phenylpropyl)boronic acid]: the results for the IC50 in assay [1] and in assay [2] were 0.0014 µM and greater than 5 µM, respectively.
Regarding `CC(C)(C=C(C#N)C(=O)N1CCCC[C@@H]1COC(=O)N[C@@H](Cc1cccc2ccccc12)B(O)O)N1CCC(F)(F)C1` [Example 106, ((R)-1-(((((R)-1-(2-cyano-4-(3,3-difluoropyrrolidin-1-yl)-4-methylpent-2-enoyl)piperidin-2-yl)methoxy)carbonyl)amino)-2-(naphthalen-1-yl)ethyl)boronic acid], the IC50 in assay [1] was 0.0052 µM; in assay [2], 2.24 µM.
The matching figures for `CC(C)(C=C(C#N)C(=O)N1CCCC[C@@H]1COC(=O)N[C@@H](Cc1ccccc1C#N)B(O)O)N1CCC(F)(F)C1` [Example 107, ((R)-1-(((((R)-1-(2-cyano-4-(3,3-difluoropyrrolidin-1-yl)-4-methylpent-2-enoyl)piperidin-2-yl)methoxy)carbonyl)amino)-2-(2-cyanophenyl)ethyl)boronic acid]: 0.111 µM and greater than 5 µM.
The matching figures for `CC(C)(C=C(C#N)C(=O)N1C[C@@H]2C[C@@H]2[C@@H]1COC(=O)N[C@@H](Cc1ccc(F)cc1)B(O)O)N1CCC(F)(F)C1` [Example 108]: 0.0009 µM and 0.83 µM.
In the same order, the values of `C=CC(=O)N1C[C@@H]2C[C@@H]2[C@@H]1COC(=O)N[C@@H](Cc1ccc(F)cc1)B(O)O` [Example 109, ((R)-1-(((((1S,2R,5R)-3-acryloyl-3-azabicyclo[3.1.0]hexan-2-yl)methoxy)carbonyl)amino)-2-(4-fluorophenyl)ethyl)boronic acid] are 0.0064 µM and 3.32 µM.
Consider `CC(C)(C=C(C#N)C(=O)N1CCCC[C@@H]1COC(=O)N[C@@H](Cc1ccccc1C(F)(F)F)B(O)O)N1CCC(F)(F)C1` [Example 110, ((R)-1-(((((R)-1-(2-cyano-4-(3,3-difluoropyrrolidin-1-yl)-4-methylpent-2-enoyl)piperidin-2-yl)methoxy)carbonyl)amino)-2-(2-(trifluoromethyl)phenyl)ethyl)boronic acid], for which the IC50 was 0.022 µM in assay [1] and greater than 5 µM in assay [2].
On to `C=CC(=O)N1CCS(=O)(=O)C[C@@H]1COC(=O)N[C@@H](Cc1coc2ccccc12)B(O)O` [Example 111], for which the IC50 came to 0.0042 µM in assay [1] and 0.09 µM in assay [2].
Turning to `C=CC(=O)N1CCC(F)(F)C[C@@H]1COC(=O)N[C@@H](Cc1coc2ccccc12)B(O)O` [Example 112, ((R)-1-(((((R)-1-acryloyl-4,4-difluoropiperidin-2-yl)methoxy)carbonyl)amino)-2-(benzofuran-3-yl)ethyl)boronic acid], the half-inhibitory concentration (IC50) in assay [1] was 0.0025 µM; in assay [2], 0.095 µM.
As for `CC(C)(C=C(C#N)C(=O)N1CCCC[C@@H]1COC(=O)N[C@@H](Cc1ccc(F)cc1F)B(O)O)N1CCC(F)(F)C1` [Example 113, ((R)-1-(((((R)-1-(2-cyano-4-(3,3-difluoropyrrolidin-1-yl)-4-methylpent-2-enoyl)piperidin-2-yl)methoxy)carbonyl)amino)-2-(2,4-difluorophenyl)ethyl)boronic acid], the IC50 in assay [1] and in assay [2] was greater than 5 µM each time.
Consider `CC(C)(C=C(C#N)C(=O)N1C[C@@H]2C[C@@H]2[C@@H]1COC(=O)N[C@@H](Cc1ccc(C(F)(F)F)cc1)B(O)O)N1CCOCC1` [Example 114], for which the IC50 came out at 0.0023 µM in assay [1] and 2.54 µM in assay [2].
In the same order, the values of `C=CC(=O)N1C[C@@H]2C[C@@H]2[C@@H]1COC(=O)N[C@@H](Cc1ccc(C(F)(F)F)cc1)B(O)O` [Example 115, ((R)-1-(((((1S,2R,5R)-3-acryloyl-3-azabicyclo[3.1.0]hexan-2-yl)methoxy)carbonyl)amino)-2-(4-(trifluoromethyl)phenyl)ethyl)boronic acid] are 0.0026 µM and 2.93 µM.
`Cc1ccc(C[C@H](NC(=O)OC[C@H]2[C@H]3C[C@H]3CN2C(=O)C(C#N)=CC(C)(C)N2CCC(F)(F)C2)B(O)O)cc1` [Example 116, ((R)-1-(((((1S,2R,5R)-3-(2-cyano-4-(3,3-difluoropyrrolidin-1-yl)-4-methylpent-2-enoyl)-3-azabicyclo[3.1.0]hexan-2-yl)methoxy)carbonyl)amino)-2-(p-tolyl)ethyl)boronic acid]: the IC50 in assay [1] is 0.062 µM; in assay [2], greater than 5 µM.
As for `CC(C)(C=C(C#N)C(=O)N1CCC[C@]1(C)COC(=O)N[C@@H](Cc1coc2ccccc12)B(O)O)N1CCC(F)(F)C1` [Example 117, ((R)-2-(benzofuran-3-yl)-1-(((((R)-1-(2-cyano-4-(3,3-difluoropyrrolidin-1-yl)-4-methylpent-2-enoyl)-2-methylpyrrolidin-2-yl)methoxy)carbonyl)amino)ethyl)boronic acid], the IC50 amounted to 0.0008 µM in assay [1] and 0.64 µM in assay [2].
On to `CC(C)(C)C[C@H](NC(=O)OC[C@@]1(C)CCCN1C(=O)C(C#N)=CC(C)(C)N1CCC(F)(F)C1)B(O)O` [Example 118, ((R)-1-(((((R)-1-(2-cyano-4-(3,3-difluoropyrrolidin-1-yl)-4-methylpent-2-enoyl)-2-methylpyrrolidin-2-yl)methoxy)carbonyl)amino)-3,3-dimethylbutyl)boronic acid], for which the IC50 in assay [1] amounted to 0.0015 µM; in assay [2], 0.57 µM.
